The test system of one assay is BT474. The assay is described as follows: BT474 orthotopic xenograft tumor growth. It is filed as in vivo, female SCID Beige mice. The note with it: BT474 (predicted sensitive) in mammary fat pad; 10 mg/kg ip q2d; treatment stopped Day 30. The method, then:
(§1) BT474 cells (ATCC, Manassas, VA, cat #HTB-20) were implanted orthotopically (2×10^6 per mouse) as a mixture in Matrigel (50%) into the mammary fat pad of female SCID Beige mice (10 mice per treatment arm) and grown to a volume of about 125 mm^3 prior to compound administration. CT-110 was dosed alone at 10 mg/kg ip, once every two days (ip, q2d) in 1% (weight/volume) sodium carboxymethyl cellulose/0.5% (volume/volume) Tween-80. A control group received vehicle alone (1% (weight/volume) sodium carboxymethyl cellulose/0.5% (volume/volume) Tween-80ip q2d). All drug treatment was stopped on Day 30. The major endpoint is to assess whether the tumor growth can be delayed or mice can be cured. Tumor sizes are measured twice weekly in two dimensions using a caliper, and the volume is expressed in mm^3 using the formula: V=0.5 a×b^2 where a and b are the long and short diameters of the tumor, respectively. The tumor sizes are then used for the calculations of both T-C and T/C values. T-C is calculated with T as the median time (in days) required for the treatment group tumors to reach a predetermined size (e.g., 1,000 mm^3), and C is the median time (in days) for the control group tumors to reach the same size. The T/C value (in percent) is an indication of antitumor effectiveness, T and C are the mean volume of the treated and control groups, respectively, on a given day.

In the next assay the test system is SK-MEL-5. In words: NCI-60 single-dose in vitro growth inhibition assay. It is filed as cell-based, human. The following applies: single-dose 10 μM. The procedure: (§2) As in FIG. 1, Compound CT-110 was used in single-dose (10 μM) in vitro growth inhibition assays of the NCI-60 cell lines. The NCI-60 panel contains 60 diverse human cancer cell lines screened with more than 100,000 chemical compounds for anticancer activity since 1990 by the Developmental Therapeutics Program (DTP). See Huang, et al., 2005, Pharmacogenomics J. 5:381-99; Staunton, et al., 2001, PNAS USA 98(19):10787-92; Covell, et al., 2007, Mol. Cancer Ther. 6:2261-70; Potti, et al., 2006. Nat. Med. 12(11):1294-300. Standardization of NCI-60 inhibition data into Z-scores. NCI-60 cell line percent growth data obtained after culture in the presence of CT-110 were converted to percent growth inhibition by the formula 100−% Growth. A Z-score for each cell line data point was calculated using the formula (X-value minus 60-element array average)/(Array standard deviation). Z-scores are associated with a normal distribution and are used (1) to indicate where a score lies relative to the entire data set, above or below the mean, and (2) to compare scores derived from different normal distributions. Narrowing the 25K+ CellMiner genes to a CT-110 inhibition signature set of 6 genes. Pattern comparison searching yielded a list of 1,080 genes having significant Pearson correlations (r>0.334 or r<−0.334) to the NCI-60 Z-score profile of CT-110. Cross-referencing this profile-matching list with 1,106 cancer-relevant genes comprising a 755-gene PanCancer and Custom Codeset, supplemented with 545 “Cancer Driver” genes (Integrative OncoGenomics, BROAD Institute TARGET Database v3, Targeted Therapies for Cancer), reduced the number of genes to fifty (50). NCI-60-based Z-score profiles for these 50 genes were obtained using the CellMiner “Cell Line Signature Analysis” query. […] Z-scores, reflective of gene expression level and directionality, were used to identify forty-five (45) genes out of the […] (Table 3) that had expression either up or down in at least 4 out of the 5 CT-110-sensitive or resistant cell lines (assessed independently). […] These six genes (CDH1, CREB3L4, PIK3C2B, RNF43, SREBF1 and ZMYM2) are the end result of the rational approach to establish a focused set of genes, with expression profiles reflecting the growth inhibition profile of CT-110 in sensitive and resistant cancer cell lines.

The next assay has as its system OVCAR-3. Described as above. In kind it is cell-based, human. The following applies: single-dose 10 μM. The method, then:
as §2

A further assay relates to MCF7. The description is as above. The following applies: single-dose 10 μM. In kind it is cell-based, human. The method, then: as §2
The next assay deals with UACC-257. The assay is described as above. It is filed as cell-based, human. The following applies: single-dose 10 μM. The procedure: as §2
A further assay deals with HT29. The description is as above. It is filed as cell-based, human. The following applies: single-dose 10 μM. The method, then:
as §2

The subject of the next assay is OVCAR-8. The assay is described as above. In kind it is cell-based, human. The note with it: single-dose 10 μM. The procedure: as §2
Another assay relates to SK-MEL-2. Described as above. In kind it is cell-based, human. The following applies: single-dose 10 μM. The procedure: as §2
The next assay has as its system COLO205. Described as above. The following applies: single-dose 10 μM. In kind it is cell-based, human. The procedure: as §2
For another assay, the system named is SK-MEL-28. The description is as above. In kind it is cell-based, human. The note with it: single-dose 10 μM. The procedure: as §2
The subject of a further assay is RPMI-8226. Described as above. The note with it: single-dose 10 μM. In kind it is cell-based, human. The procedure:
as §2

The next assay relates to MDAMB231. In words: MDAMB231 orthotopic xenograft tumor growth. It is filed as in vivo, female SCID Beige mice. The following applies: MDAMB231 (predicted resistant) in mammary fat pad; 10 mg/kg ip q2d; treatment stopped Day 20. The procedure: as §1, with “MDAMB231” for “BT474”, “#HTB-26)” for “#HTB-20)”, “75” for “125”, “20.” for “30.”

`N=C(NCCCOc1ccc(F)cc1)Nc1ccc(Cl)cc1` [CT-110, 1-(3-(4-fluorophenoxy)propyl)-3-(4-chlorophenyl)guanidine]: the “tumor growth T/C” value in the assay on BT474 was 70%; with MDAMB231, less than 10%. In addition, the “sensitivity to Sigma1 inhibition by CT-110 (growth inhibition rank in NCI-60)” value in the assay with SK-MEL-5 is given as “most sensitive”; in the assay with OVCAR-3 it was “most resistant”; with MCF7, “most sensitive”; in the assay with UACC-257, “most sensitive”; in the assay on HT29 it was “most sensitive”; in the assay on OVCAR-8, “most resistant”. Moreover, the “sensitivity to Sigma1 inhibition by CT-110 (growth inhibition rank in NCI-60)” value is “most resistant” with SK-MEL-2, “most sensitive” in the assay on COLO205, “most resistant” with SK-MEL-28 and “most resistant” in the assay with RPMI-8226.
